Source: PMC12186697, “HypoxyStat, a small-molecule form of hypoxia therapy that increases oxygen-hemoglobin affinity” (Cell, 2025)

Experiments:
[1] = Stability of dosing suspension; type: physicochemical; conditions: suspension in 0.5% HPMC, stored at 4 °C
Protocol: Mice were administered HypoxyStat at 600 mg/kg every other day or 400mg/kg daily via oral gavage. For the disease prevention experiments, KO mice that underwent daily dosing were dosed starting ~P30 for 1 week of 200mg/kg daily, followed by 400mg/kg daily to allow for gradual dose escalation. For the reversal study, KO mice were dosed once with 200mg/kg on postnatal day ~P55, followed by 400mg/kg daily. HypoxyStat was formulated as a suspension at 60 mg/mL, 40mg/ml or 80mg/ml depending on dose in 0.5%HPMC and stored at 4 °C. The formulation was determined to be stable for at least 8 weeks. Animal body weight was taken at time of dosing to determine appropriate dosing volume (10 mL/kg for every other day dosing, 5ml/kg for daily dosing). Vehicle treated mice were administered the same volume of 0.5% HPMC.

[2] = test system: hypoxia transcriptional response (HIF); assay: Hypoxia biomarkers in mice (plasma Epo, hematocrit, blood glucose, hypoxia-induced brain transcripts); type: in vivo, mouse
Protocol: Plasma Epo measurements were performed with R&D Systems Epo Elisa Kit (MEP00B) according to manufacturer directions. Briefly, whole blood was collected with anticoagulant before centrifugation within 30 minutes of collection and stored at −80C until day of analysis. On the day of Epo assay, samples were thawed and diluted 2-fold and incubated in the assay plate for two hours. Each well was washed five times before the addition of Epo Conjugate followed by a two-hour incubation. Each well was washed five times before adding Substrate Solution to develop for 30 minutes before addition of Stop Solution. The optical density of each well was determined at 450nm and correction wavelength of 540/570.
Hematocrit was determined with an iStat VetScan 1 with Zoetis Chem 8+ cartridges. Blood glucose measurements were performed using OneTouch UltraPlus glucometer. Whole blood chemistry measurements were performed on a VetScan HM5.
Half of the hindbrain was collected at necropsy and immediately flash frozen. For RNA extraction, a stainless-steel bead (Qiagen) and 1 mL TRIzol™ Reagent (Thermo Fisher Scientific) were added to the frozen samples, which were rapidly lysed using a tissue lyser (Qiagen) for five 1-minute cycles of 30 Hz frequency. Subsequent steps for RNA isolation were identical as previously described.[9] Reverse transcription was performed using the QuantiTect Reverse Transcription Kit (Qiagen) instructions. Briefly, gDNA was wiped out from samples containing 1 μg RNA. gDNA-free RNA samples were reverse transcribed following Qiagen’s instructions. […] For each set of triplicates, an average CT value was obtained, and the difference in average CT between the target gene and β-actin was calculated (ΔCT). Next, the difference in ΔCT value between each sample and the average of the normoxia samples was calculated (ΔΔCT). Relative expression of each gene was determined by calculating 2^−ΔΔCT.

Structure (SMILES): O=Cc1ccccc1C(=O)N1CCCC[C@H]1COc1cccc(O)c1C=O [HypoxyStat]
- stability of formulation [1]: at least 8 weeks
- circulating Epo and 5 hypoxia-induced transcripts in hindbrain ([2]; 400 mg/kg daily, 48 h, compared with inhaled hypoxia (11% O2)): induced to an equivalent or greater degree
- Epo and hematocrit with increasing dose ([2]; oral gavage 3 times per week for 12 days, up to 600 mg/kg): substantial increases in both Epo and hematocrit
